In the experiment the test system is L1210 leukemia ip in BDF1 mice, survival T/C. Kind of experiment: NCI In Vivo Anticancer Drug Screen. Data for tumor model L1210 Leukemia (intraperitoneal) in B6D2F1 (BDF1) mice. The settings on record: endpoint: mean survival time, higher = longer survival. In outline:
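Tumor was transplanted into mice, which were then dosed with test compound or vehicle alone. Survival was recorded for each group, and the treated figure was expressed relative to the control figure.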

[1] abbreviates: dose: 50.0 mg/kg/injection, schedule: Q01DX009 (ip), vehicle: Klucel (hydroxypropylcellulose) (HPC).
Where [2] appears, read: dose: 100.0 mg/kg/injection, schedule: Q01DX009 (ip), vehicle: Klucel (hydroxypropylcellulose) (HPC).
Where [3] appears, read: dose: 100.0 mg/kg/injection, schedule: Q01DX001 (ip), vehicle: saline.
Where [4] appears, read: dose: 200.0 mg/kg/injection, schedule: Q01DX001 (ip), vehicle: saline.
[5] abbreviates: dose: 400.0 mg/kg/injection, schedule: Q01DX001 (ip), vehicle: saline.
Setting [6] is: dose: 100.0 mg/kg/injection, schedule: Q01DX009 (ip), vehicle: saline with Tween-80.
Where [7] appears, read: dose: 200.0 mg/kg/injection, schedule: Q01DX009 (ip), vehicle: saline with Tween-80.
Where [8] appears, read: dose: 100.0 mg/kg/injection, schedule: Q01DX001 (ip), vehicle: saline with Tween-80.
Where [9] appears, read: dose: 200.0 mg/kg/injection, schedule: Q01DX001 (ip), vehicle: saline with Tween-80.
[10] abbreviates: dose: 400.0 mg/kg/injection, schedule: Q01DX001 (ip), vehicle: saline with Tween-80.
[11] abbreviates: dose: 100.0 mg/kg/injection, schedule: Q04DX002 (ip), vehicle: saline with Tween-80.
The mark [12] stands for this setting: dose: 100.0 mg/kg/injection, schedule: Q01DX001 (ip), vehicle: carboxymethylcellulose (CMC).
Setting [13] is: dose: 200.0 mg/kg/injection, schedule: Q01DX001 (ip), vehicle: carboxymethylcellulose (CMC).
The mark [14] stands for this setting: dose: 400.0 mg/kg/injection, schedule: Q01DX001 (ip), vehicle: carboxymethylcellulose (CMC).

Molecules are shown by their SMILES. Where “and” joins values, the source holds several entries; their conditions need not be identical. Equal entries are not always repeated. Inconclusive results and toxic doses are left out.

For `O=NN(CCF)C(=O)NC1CCC(NC(=O)N(CCF)N=O)CC1` (stereo not drawn), the T/C is 151 % of control (dose: 16.0 mg/kg/injection, schedule: Q01DX001 (ip), vehicle: carboxymethylcellulose (CMC)); 190 % of control (dose: 30.0 mg/kg/injection, schedule: Q01DX001 (ip), vehicle: other); 176 % of control (dose: 31.0 mg/kg/injection, schedule: Q01DX001 (ip), vehicle: carboxymethylcellulose (CMC)); 220 % of control (dose: 50.0 mg/kg/injection, schedule: Q01DX001 (ip), vehicle: other); 294 % of control (dose: 60.0 mg/kg/injection, schedule: Q01DX001 (ip), vehicle: other); 336 % of control (dose: 62.0 mg/kg/injection, schedule: Q01DX001 (ip), vehicle: carboxymethylcellulose (CMC)). Also, the T/C by setting is: (dose: 80.0 mg/kg/injection, schedule: Q01DX001 (ip), vehicle: other) 300 % of control; (dose: 120.0 mg/kg/injection, schedule: Q01DX001 (ip), vehicle: other) 315 % of control and 340 % of control; (dose: 125.0 mg/kg/injection, schedule: Q01DX001 (ip), vehicle: carboxymethylcellulose (CMC)) 357 % of control; (dose: 180.0 mg/kg/injection, schedule: Q01DX001 (ip), vehicle: other) 340 % of control; (dose: 240.0 mg/kg/injection, schedule: Q01DX001 (ip), vehicle: other) 298 % of control; (dose: 250.0 mg/kg/injection, schedule: Q01DX001 (ip), vehicle: carboxymethylcellulose (CMC)) 357 % of control. Also, the T/C by setting is: (dose: 375.0 mg/kg/injection, schedule: Q01DX001 (ip), vehicle: carboxymethylcellulose (CMC)) 276 % of control; (dose: 500.0 mg/kg/injection, schedule: Q01DX001 (ip), vehicle: carboxymethylcellulose (CMC)) 271 % of control; (dose: 750.0 mg/kg/injection, schedule: Q01DX001 (ip), vehicle: carboxymethylcellulose (CMC)) 175 % of control; (dose: 1000.0 mg/kg/injection, schedule: Q01DX001 (ip), vehicle: carboxymethylcellulose (CMC)) 175 % of control.
Consider `COc1nc2ccccc2nc1N1CC1`, for which the T/C is 103 % of control (dose: 26.0 mg/kg/injection, schedule: Q01DX009 (ip), vehicle: acetone); 101 % of control (dose: 40.0 mg/kg/injection, schedule: Q01DX009 (ip), vehicle: acetone); 108 % of control (dose: 60.0 mg/kg/injection, schedule: Q01DX009 (ip), vehicle: acetone); 101 % of control (dose: 90.0 mg/kg/injection, schedule: Q01DX009 (ip), vehicle: acetone); 121 % of control (dose: 135.0 mg/kg/injection, schedule: Q01DX009 (ip), vehicle: acetone).
For the compound `CN1CCC23CCCCC2C1Cc1ccc(O)cc13` (stereo not drawn), under “dose: 75.0 mg/kg/injection, schedule: Q01DX001 (ip), vehicle: saline”, the T/C was 95 % of control.
For the compound `O=C(NC(=S)Nc1ccc(Cl)cc1)c1ccccc1`, the T/C by setting is: (dose: 25.0 mg/kg/injection, schedule: Q01DX009 (ip), vehicle: Klucel (hydroxypropylcellulose) (HPC)) 95 % of control; under setting [1], 93 % of control; under setting [2], 93 % of control and 89 % of control.
For `Cc1ccc(C(c2ccc(C)c(C)c2)C(c2ccc(C)c(C)c2)C(O)C(O)C(O)CO)cc1C` (stereo not drawn), the T/C runs as follows: (dose: 50.0 mg/kg/injection, schedule: Q01DX001 (ip), vehicle: saline) 93 % of control; under setting [3], 106 % of control; under setting [4], 98 % of control; under setting [5], 98 % of control.
In the case of `COc1ccc(N(N=O)C(C)C)cc1`, the T/C by setting is: (dose: 12.5 mg/kg/injection, schedule: Q01DX009 (ip), vehicle: saline with Tween-80) 87 % of control; (dose: 25.0 mg/kg/injection, schedule: Q01DX009 (ip), vehicle: saline with Tween-80) 94 % of control; (dose: 50.0 mg/kg/injection, schedule: Q01DX009 (ip), vehicle: saline with Tween-80) 87 % of control; under setting [6], 89 % of control; under setting [7], 92 % of control.
For `O=C(CS(=O)(=O)O)Nc1ccccc1`, the T/C by setting is: under setting [8], 94 % of control; under setting [9], 97 % of control; under setting [10], 100 % of control.
`CCCCCCCC/C=C\CCCCCCCCNP(=O)(OC)OC`: the T/C was 96 % of control (dose: 25.0 mg/kg/injection, schedule: Q04DX002 (ip), vehicle: saline with Tween-80); 92 % of control (dose: 50.0 mg/kg/injection, schedule: Q04DX002 (ip), vehicle: saline with Tween-80); 101 % of control and 92 % of control under setting [11].
In the case of `Nc1c(Br)cc(Br)c2[nH]c(=O)c3ccccc3c12`, the T/C runs as follows: under setting [12], 104 % of control; under setting [13], 96 % of control; under setting [14], 98 % of control.
With `O=C1C=C(NCCc2cnc[nH]2)c2ccccc2C1=O`, the T/C runs as follows: under setting [1], 92 % of control; under setting [2], 103 % of control.
For the compound `O=[N+]([O-])c1cc(N(c2ccccc2)c2ccccc2)ccc1Cl`, the T/C was 97 % of control under setting [12], 97 % of control under setting [13] and 95 % of control under setting [14].
Consider `COc1cccc2c1CCC1=C2CCC2CC(=O)CCC12C` (stereo not drawn), for which the T/C by setting is: (dose: 100.0 mg/kg/injection, schedule: Q01DX001 (sc), vehicle: steriod suspending solution) 98 % of control; (dose: 200.0 mg/kg/injection, schedule: Q01DX001 (sc), vehicle: steriod suspending solution) 100 % of control; (dose: 400.0 mg/kg/injection, schedule: Q01DX001 (sc), vehicle: steriod suspending solution) 100 % of control.
For `O=c1cc(CO)oc(C(Nc2cccc(Cl)c2)c2ccccc2)c1O` (stereo not drawn), the T/C is, setting by setting: under setting [3], 91 % of control; under setting [4], 95 % of control; under setting [5], 89 % of control.
With `Cc1cncc(=O)[nH]1`, the T/C is 98 % of control under setting [8]; 96 % of control under setting [6]; 104 % of control (dose: 100.0 mg/kg/injection, schedule: Q04DX003 (ip), vehicle: saline with Tween-80); 98 % of control under setting [9]; 100 % of control under setting [7]; 111 % of control (dose: 200.0 mg/kg/injection, schedule: Q04DX003 (ip), vehicle: saline with Tween-80). In addition, the T/C is 102 % of control under setting [10]; 91 % of control (dose: 400.0 mg/kg/injection, schedule: Q01DX009 (ip), vehicle: saline with Tween-80); 98 % of control (dose: 400.0 mg/kg/injection, schedule: Q04DX003 (ip), vehicle: saline with Tween-80).
Take `Cc1[nH]nc2c(NO)ncnc12`: the T/C is 98 % of control (dose: 100.0 mg/kg/injection, schedule: Q01DX001 (ip), vehicle: other); 98 % of control (dose: 200.0 mg/kg/injection, schedule: Q01DX001 (ip), vehicle: other); 102 % of control (dose: 400.0 mg/kg/injection, schedule: Q01DX001 (ip), vehicle: other).
For the compound `N#Cc1cn(C2OC(CO)C(O)C2O)c2ncn3ccnc3c12` (stereo not drawn), the T/C (dose: 100.0 mg/kg/injection, schedule: Q04DX003 (ip), vehicle: water) is 116 % of control; the T/C (dose: 200.0 mg/kg/injection, schedule: Q04DX003 (ip), vehicle: water) is 113 % of control and 117 % of control; the T/C (dose: 300.0 mg/kg/injection, schedule: Q04DX003 (ip), vehicle: water) was 121 % of control; the T/C (dose: 500.0 mg/kg/injection, schedule: Q04DX003 (ip), vehicle: water) is 107 % of control.
With `Cc1ccc(S(=O)(=O)N(c2ccc(I)cc2F)S(=O)(=O)c2ccc(C)cc2)cc1`, the T/C runs as follows: (dose: 100.0 mg/kg/injection, schedule: Q04DX003 (ip), vehicle: Klucel (hydroxypropylcellulose) (HPC)) 98 % of control; (dose: 200.0 mg/kg/injection, schedule: Q04DX003 (ip), vehicle: Klucel (hydroxypropylcellulose) (HPC)) 97 % of control; (dose: 400.0 mg/kg/injection, schedule: Q04DX003 (ip), vehicle: Klucel (hydroxypropylcellulose) (HPC)) 108 % of control.
Take `O=S(=O)(NC1CCc2ccccc21)c1ccccc1` (stereo not drawn): the T/C is 95 % of control under setting [6] and 90 % of control under setting [7].
Regarding `Cn1c2ccccc2c2nnc(SCCN3CCOCC3)nc21`, the T/C is 97 % of control under setting [11]; 93 % of control (dose: 200.0 mg/kg/injection, schedule: Q04DX002 (ip), vehicle: saline with Tween-80); 101 % of control (dose: 400.0 mg/kg/injection, schedule: Q04DX002 (ip), vehicle: saline with Tween-80).

The values are drawn from PubChem BioAssay AID248 (DTP/NCI, 2004).
